The values below come from US7635572B2, “Methods for conducting assays for enzyme activity on protein microarrays” (Life Technologies Corporation, priority 2004, dated 2009).

Common to all, as to assay: Further analysis of a plurality of inhibitors and a plurality of kinases on microarray (Example IX, Table 5);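 for Inhibition level, DYRK2: level 0 none or unclear Level 1 marginal Level 2 substantial inhibition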;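 for Inhibition level, MAP4K3: level 0 none or unclear then 1 little or marginal then 2 substantial inhibition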;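 for Inhibition level, PTK2B: level 0 no or unclear inhibition to Level 2 substantial inhibition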;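 for Inhibition level, TLK2: level 0 none or unclear Level 1 marginal Level 2 substantial inhibition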
Common to all, as to format: biochemical

Test [1] addresses plurality of kinases (Table 5) (Homo sapiens, UniProt P07949). The conditions noted are these: plate B7.
Test [2] deals with plurality of kinases (Table 5) (Homo sapiens, UniProt P11362). To be noted: plate D12; inhibitor 100 uM.
The target of test [3] is plurality of kinases (Table 5) (Homo sapiens, UniProt Q14289). The conditions noted are these: plate G5.
Test [4] concerns the target plurality of kinases (Table 5) (Homo sapiens, UniProt Q86UE8). To be noted: plate C8.
In test [5] the target is T1, plurality of kinases (Table 5) (Homo sapiens, UniProt Q8IVH8).
T1 sequence (Q8IVH8 1-894): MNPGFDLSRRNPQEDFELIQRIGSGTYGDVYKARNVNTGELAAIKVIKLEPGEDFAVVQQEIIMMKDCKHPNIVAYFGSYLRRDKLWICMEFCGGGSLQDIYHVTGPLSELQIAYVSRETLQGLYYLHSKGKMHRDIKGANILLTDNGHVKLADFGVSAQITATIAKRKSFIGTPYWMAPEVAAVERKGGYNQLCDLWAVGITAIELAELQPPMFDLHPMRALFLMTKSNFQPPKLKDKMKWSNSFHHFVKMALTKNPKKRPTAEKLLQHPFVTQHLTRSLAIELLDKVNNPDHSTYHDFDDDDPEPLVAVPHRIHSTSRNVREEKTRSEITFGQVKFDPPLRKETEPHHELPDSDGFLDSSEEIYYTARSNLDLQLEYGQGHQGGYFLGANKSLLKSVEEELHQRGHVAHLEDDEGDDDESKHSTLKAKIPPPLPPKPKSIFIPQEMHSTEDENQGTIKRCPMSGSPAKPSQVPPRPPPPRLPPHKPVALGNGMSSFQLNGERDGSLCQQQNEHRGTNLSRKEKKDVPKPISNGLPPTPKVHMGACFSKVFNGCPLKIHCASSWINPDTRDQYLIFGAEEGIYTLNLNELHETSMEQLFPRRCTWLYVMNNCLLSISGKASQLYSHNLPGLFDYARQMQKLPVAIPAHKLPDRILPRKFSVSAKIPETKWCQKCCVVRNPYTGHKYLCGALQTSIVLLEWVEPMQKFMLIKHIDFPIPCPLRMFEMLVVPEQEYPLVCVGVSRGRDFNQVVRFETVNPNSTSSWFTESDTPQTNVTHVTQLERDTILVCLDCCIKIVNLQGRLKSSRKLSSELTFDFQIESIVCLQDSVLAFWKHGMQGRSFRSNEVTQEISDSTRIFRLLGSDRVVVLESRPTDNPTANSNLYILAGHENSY
The conditions noted are these: plate C5; inhibitor 100 uM.

For test [6], the target named is T2, plurality of kinases (Table 5) (Homo sapiens, UniProt Q92630).
T2 sequence (Q92630 1-601): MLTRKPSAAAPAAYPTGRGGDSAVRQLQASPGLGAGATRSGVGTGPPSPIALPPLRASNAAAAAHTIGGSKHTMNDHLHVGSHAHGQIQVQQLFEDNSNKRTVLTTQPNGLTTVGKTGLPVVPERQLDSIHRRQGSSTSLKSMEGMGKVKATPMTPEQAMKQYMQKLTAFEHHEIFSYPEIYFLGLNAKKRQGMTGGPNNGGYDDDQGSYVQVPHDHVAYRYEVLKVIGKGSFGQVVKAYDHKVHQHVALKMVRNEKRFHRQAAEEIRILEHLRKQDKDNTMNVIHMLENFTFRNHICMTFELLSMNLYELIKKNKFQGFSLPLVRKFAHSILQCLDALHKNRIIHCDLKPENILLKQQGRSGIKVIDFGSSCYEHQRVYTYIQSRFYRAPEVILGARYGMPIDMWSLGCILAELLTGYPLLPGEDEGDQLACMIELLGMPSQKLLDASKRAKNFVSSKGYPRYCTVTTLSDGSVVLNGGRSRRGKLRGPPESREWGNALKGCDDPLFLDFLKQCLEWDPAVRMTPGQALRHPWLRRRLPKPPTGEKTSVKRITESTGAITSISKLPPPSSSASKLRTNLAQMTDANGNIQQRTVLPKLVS
To be noted: plate D11.

The target in test [7] is T3, plurality of kinases (Table 5) (Homo sapiens, UniProt Q96KB5).
T3 sequence (Q96KB5 1-322): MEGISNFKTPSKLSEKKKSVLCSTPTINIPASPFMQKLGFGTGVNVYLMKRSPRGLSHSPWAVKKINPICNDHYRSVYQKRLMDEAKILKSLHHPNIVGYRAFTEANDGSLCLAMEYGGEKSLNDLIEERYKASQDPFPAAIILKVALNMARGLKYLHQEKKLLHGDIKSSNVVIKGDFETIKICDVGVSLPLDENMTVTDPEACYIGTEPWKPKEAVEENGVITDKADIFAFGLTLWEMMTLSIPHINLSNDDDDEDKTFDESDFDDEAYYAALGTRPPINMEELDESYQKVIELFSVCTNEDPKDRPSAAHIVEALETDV
To be noted: plate G7.

Test [8] concerns the target T4, plurality of kinases (Table 5) (Homo sapiens, UniProt Q9Y616).
T4 sequence (Q9Y616 1-596): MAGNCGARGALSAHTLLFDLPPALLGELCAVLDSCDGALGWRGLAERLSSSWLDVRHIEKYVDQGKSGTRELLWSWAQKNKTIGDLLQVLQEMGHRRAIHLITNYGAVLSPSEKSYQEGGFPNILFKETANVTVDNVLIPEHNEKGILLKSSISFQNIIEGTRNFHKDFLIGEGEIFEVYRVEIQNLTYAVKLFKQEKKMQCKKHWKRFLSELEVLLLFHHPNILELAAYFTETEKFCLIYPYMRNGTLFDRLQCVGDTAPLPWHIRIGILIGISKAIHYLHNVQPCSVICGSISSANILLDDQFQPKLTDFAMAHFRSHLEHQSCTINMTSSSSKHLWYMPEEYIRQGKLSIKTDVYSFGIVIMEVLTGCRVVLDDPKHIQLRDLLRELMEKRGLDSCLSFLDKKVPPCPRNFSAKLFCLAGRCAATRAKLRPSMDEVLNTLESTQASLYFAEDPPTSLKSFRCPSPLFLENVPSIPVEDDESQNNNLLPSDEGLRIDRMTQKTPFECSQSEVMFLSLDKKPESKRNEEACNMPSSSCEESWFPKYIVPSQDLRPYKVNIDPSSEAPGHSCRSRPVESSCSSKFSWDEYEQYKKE
The conditions noted are these: plate C9; inhibitor 100 uM.

Each structure is given as a SMILES string.

Chain of plurality of kinases (Table 5) (Homo sapiens, UniProt Q14289) (Q14289 whole entry): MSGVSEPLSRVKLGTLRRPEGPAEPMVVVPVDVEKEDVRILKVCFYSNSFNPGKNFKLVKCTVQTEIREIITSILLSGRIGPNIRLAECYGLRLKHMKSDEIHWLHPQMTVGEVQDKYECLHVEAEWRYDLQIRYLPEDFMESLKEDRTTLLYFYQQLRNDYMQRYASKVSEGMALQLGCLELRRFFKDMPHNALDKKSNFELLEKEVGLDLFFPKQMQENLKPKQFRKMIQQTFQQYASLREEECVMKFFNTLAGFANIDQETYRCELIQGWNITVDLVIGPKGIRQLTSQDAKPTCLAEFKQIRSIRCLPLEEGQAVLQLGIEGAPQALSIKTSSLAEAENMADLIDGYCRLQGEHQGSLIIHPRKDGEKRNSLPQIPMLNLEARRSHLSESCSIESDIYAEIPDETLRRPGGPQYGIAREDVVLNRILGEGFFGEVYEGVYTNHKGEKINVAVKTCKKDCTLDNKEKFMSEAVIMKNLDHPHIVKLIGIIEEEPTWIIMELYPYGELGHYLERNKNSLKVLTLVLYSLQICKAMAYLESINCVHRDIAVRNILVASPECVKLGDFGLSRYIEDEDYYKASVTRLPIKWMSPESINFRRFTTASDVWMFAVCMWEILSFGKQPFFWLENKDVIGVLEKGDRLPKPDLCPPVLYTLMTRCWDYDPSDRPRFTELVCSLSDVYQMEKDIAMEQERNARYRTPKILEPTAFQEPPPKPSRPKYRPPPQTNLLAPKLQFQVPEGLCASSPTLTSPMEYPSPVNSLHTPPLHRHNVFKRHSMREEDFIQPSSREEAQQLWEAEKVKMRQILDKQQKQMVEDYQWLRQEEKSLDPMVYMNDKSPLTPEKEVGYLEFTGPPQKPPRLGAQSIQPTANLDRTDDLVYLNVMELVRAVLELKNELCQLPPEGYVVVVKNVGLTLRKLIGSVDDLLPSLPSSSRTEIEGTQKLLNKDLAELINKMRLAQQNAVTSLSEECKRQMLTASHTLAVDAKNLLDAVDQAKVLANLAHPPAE
Chain of plurality of kinases (Table 5) (Homo sapiens, UniProt Q86UE8) (Q86UE8 whole entry): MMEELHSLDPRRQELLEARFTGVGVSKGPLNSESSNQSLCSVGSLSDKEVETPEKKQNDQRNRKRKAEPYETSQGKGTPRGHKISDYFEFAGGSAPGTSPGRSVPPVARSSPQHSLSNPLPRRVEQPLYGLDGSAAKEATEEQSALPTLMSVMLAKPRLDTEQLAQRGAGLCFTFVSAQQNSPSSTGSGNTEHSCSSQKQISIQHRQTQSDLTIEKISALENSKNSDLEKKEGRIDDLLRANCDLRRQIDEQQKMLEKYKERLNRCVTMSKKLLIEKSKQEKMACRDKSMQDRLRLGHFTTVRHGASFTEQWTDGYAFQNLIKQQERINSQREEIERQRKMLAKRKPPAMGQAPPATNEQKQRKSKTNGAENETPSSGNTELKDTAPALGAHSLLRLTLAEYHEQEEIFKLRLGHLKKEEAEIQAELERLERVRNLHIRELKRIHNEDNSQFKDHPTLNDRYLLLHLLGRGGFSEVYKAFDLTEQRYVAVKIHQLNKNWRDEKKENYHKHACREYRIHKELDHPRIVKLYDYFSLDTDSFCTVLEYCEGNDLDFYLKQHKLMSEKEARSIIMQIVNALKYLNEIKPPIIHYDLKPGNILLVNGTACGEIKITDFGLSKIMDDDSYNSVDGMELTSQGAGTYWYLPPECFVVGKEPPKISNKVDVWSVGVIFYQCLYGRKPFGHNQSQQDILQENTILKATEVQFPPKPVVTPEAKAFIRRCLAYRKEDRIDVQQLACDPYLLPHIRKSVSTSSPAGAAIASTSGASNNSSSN
Chain of plurality of kinases (Table 5) (Homo sapiens, UniProt P07949) (P07949 29-1114): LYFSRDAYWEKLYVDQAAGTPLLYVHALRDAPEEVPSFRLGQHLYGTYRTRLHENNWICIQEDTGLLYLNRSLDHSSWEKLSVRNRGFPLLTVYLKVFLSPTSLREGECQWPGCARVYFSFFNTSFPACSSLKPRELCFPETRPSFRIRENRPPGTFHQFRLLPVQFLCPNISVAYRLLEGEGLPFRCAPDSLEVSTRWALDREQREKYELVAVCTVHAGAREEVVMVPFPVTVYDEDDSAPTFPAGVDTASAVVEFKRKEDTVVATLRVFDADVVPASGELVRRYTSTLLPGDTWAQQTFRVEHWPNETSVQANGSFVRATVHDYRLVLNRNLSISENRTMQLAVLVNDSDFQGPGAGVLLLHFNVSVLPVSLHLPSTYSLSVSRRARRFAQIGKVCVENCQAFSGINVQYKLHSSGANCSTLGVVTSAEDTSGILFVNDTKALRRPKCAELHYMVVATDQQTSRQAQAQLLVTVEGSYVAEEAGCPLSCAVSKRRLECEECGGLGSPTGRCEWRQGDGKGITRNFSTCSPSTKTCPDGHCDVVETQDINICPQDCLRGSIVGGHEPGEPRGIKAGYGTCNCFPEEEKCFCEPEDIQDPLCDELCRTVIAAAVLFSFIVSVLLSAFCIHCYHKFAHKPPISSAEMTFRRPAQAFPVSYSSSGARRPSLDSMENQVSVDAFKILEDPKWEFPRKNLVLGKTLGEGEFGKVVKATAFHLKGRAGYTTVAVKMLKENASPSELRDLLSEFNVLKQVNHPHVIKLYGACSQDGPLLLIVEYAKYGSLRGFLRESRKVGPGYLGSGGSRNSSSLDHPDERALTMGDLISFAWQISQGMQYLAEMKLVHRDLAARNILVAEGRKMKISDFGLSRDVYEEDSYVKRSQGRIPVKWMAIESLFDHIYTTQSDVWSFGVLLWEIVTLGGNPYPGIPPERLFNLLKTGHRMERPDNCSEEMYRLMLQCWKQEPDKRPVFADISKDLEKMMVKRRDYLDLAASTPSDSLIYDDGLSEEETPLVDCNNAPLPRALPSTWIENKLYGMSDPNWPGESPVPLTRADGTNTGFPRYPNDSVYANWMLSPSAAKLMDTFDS
Chain of plurality of kinases (Table 5) (Homo sapiens, UniProt P11362) (P11362 22-822): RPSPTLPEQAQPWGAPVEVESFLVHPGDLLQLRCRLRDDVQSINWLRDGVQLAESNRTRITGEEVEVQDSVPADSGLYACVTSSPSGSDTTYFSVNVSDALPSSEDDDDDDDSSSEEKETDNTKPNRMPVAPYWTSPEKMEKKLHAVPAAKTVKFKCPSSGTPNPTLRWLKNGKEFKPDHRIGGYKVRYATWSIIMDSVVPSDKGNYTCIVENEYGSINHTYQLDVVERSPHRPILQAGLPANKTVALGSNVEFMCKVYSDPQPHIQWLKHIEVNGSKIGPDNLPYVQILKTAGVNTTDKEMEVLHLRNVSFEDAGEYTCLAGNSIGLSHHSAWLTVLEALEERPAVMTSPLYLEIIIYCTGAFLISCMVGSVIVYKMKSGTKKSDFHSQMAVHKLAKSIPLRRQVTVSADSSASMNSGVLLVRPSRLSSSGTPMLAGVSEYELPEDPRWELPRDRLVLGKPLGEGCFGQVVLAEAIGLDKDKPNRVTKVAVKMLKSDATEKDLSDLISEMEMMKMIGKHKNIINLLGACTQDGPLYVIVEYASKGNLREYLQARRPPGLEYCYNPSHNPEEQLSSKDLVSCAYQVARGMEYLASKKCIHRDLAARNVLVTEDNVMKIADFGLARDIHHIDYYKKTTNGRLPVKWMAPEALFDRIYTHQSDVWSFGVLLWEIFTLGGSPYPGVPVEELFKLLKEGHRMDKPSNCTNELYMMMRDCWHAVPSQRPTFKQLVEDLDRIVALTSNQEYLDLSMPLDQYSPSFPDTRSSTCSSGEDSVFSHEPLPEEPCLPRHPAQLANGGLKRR

Take `O=c1c(-c2ccc(O)cc2)coc2cc(O)cc(O)c12` [Genistein]: the “Inhibition level, RET” value is on record as 0 in test [1] (Genistein, conc. not given) and 2 in test [1] (inhibitor 100 uM). For the same compound, in test [2], the “Inhibition level, FGFR1” value is 0. Moreover, the “Inhibition level, PTK2B” value in test [3] (inhibitor 100 uM) is on record as 2. Further, the figures for the “Inhibition level, TLK2” value in test [4] (Genistein <3.7 mM) and in test [4] (inhibitor 100 uM) were 0 and 2, respectively. In addition, the “Inhibition level, MAP4K3” value in test [5] was found to be 2. In addition, the “Inhibition level, DYRK2” value worked out at 1 in test [6] (Genistein, conc. not given) and 2 in test [6] (inhibitor 100 uM). Moreover, the “Inhibition level, TOPK” value in test [7] (Genistein <3.7 mM) was determined as 0; in test [7] (inhibitor 100 uM) it was 2. The “Inhibition level, IRAK3” value in test [8] is 2.

Take `O=S(=O)(NCCNC/C=C/c1ccc(Br)cc1)c1cccc2cnccc12` [H-89]: the “Inhibition level, RET” value in test [1] (inhibitor 100 uM) worked out at 0. In addition, the “Inhibition level, FGFR1” value in test [2] was found to be 1. Besides, the “Inhibition level, PTK2B” value in test [3] (inhibitor 100 uM) stood at 1. Moreover, in test [4] (inhibitor 100 uM), the “Inhibition level, TLK2” value stood at 2. For the same compound, the “Inhibition level, MAP4K3” value in test [5] came to 1. Also, in test [6] (inhibitor 100 uM), the “Inhibition level, DYRK2” value is recorded as 2. Also, the “Inhibition level, TOPK” value in test [7] (inhibitor 100 uM) came to 2. Also, the “Inhibition level, IRAK3” value in test [8] came to 0.

On to `O=c1c(O)c(-c2ccc(O)c(O)c2)oc2cc(O)cc(O)c12` [Quercetin], for which the “Inhibition level, PTK2B” value in test [3] (inhibitor 100 uM) is 1. In addition, the “Inhibition level, TLK2” value in test [4] (inhibitor 100 uM) was determined as 0. In test [5], the “Inhibition level, MAP4K3” value is 1. Besides, the “Inhibition level, DYRK2” value in test [6] (inhibitor 100 uM) was found to be 2. Besides, in test [7] (inhibitor 100 uM), the “Inhibition level, TOPK” value came out at 0. Besides, in test [8], the “Inhibition level, IRAK3” value is recorded as 0.

With `COc1cc2ncnc(Nc3cccc(Cl)c3)c2cc1OC` [AG 1478], the “Inhibition level, RET” value in test [1] (inhibitor 100 uM) worked out at 2. Further, the “Inhibition level, FGFR1” value in test [2] was 1. Further, the “Inhibition level, PTK2B” value in test [3] (inhibitor 100 uM) worked out at 2. The “Inhibition level, TLK2” value in test [4] (inhibitor 100 uM) was determined as 2. The “Inhibition level, MAP4K3” value in test [5] was 2. Besides, the “Inhibition level, DYRK2” value in test [6] (inhibitor 100 uM) was 2. Moreover, in test [7] (inhibitor 100 uM), the “Inhibition level, TOPK” value came to 1. For the same compound, the “Inhibition level, IRAK3” value in test [8] amounted to 2.

In the case of `N#C/C(=C/c1ccc(O)c(O)c1)C(=O)NCc1ccccc1` [AG 490], in test [1] (inhibitor 100 uM), the “Inhibition level, RET” value worked out at 2. Moreover, the “Inhibition level, FGFR1” value in test [2] is 0. Besides, the “Inhibition level, PTK2B” value in test [3] (inhibitor 100 uM) amounted to 2. The “Inhibition level, TLK2” value in test [4] (inhibitor 100 uM) is 2. Also, in test [5], the “Inhibition level, MAP4K3” value worked out at 1. Besides, the “Inhibition level, DYRK2” value in test [6] (inhibitor 100 uM) worked out at 2. Also, the “Inhibition level, TOPK” value in test [7] (inhibitor 100 uM) worked out at 2. The “Inhibition level, IRAK3” value in test [8] is 0.

As for `CN[C@@H]1C[C@H]2O[C@@](C)([C@@H]1OC)n1c3ccccc3c3c4c(c5c6ccccc6n2c5c31)C(=O)NC4` [Staurosporine], the “Inhibition level, PTK2B” value in test [3] (Staurosporine 21.5 uM) is 0. Also, in test [4] (Staurosporine 21.5 uM), the “Inhibition level, TLK2” value amounted to 2. In addition, the “Inhibition level, TOPK” value in test [7] (Staurosporine 21.5 uM) is 2.

`Cn1cc(C2=C(c3cn(CCCSC(=N)N)c4ccccc34)C(=O)NC2=O)c2ccccc21` [Ro-31-8220]: the “Inhibition level, RET” value in test [1] (Ro-31-8220, conc. not given) is listed as 2; in test [1] (inhibitor 100 uM) it was 0. For the same compound, the “Inhibition level, FGFR1” value in test [2] was determined as 2. For the same compound, the “Inhibition level, PTK2B” value is 0 in test [3] (Ro-31-8220 90 uM) and 2 in test [3] (inhibitor 100 uM). The “Inhibition level, TLK2” value turned out to be 2 in test [4] (Ro-31-8220 90 uM) and 1 in test [4] (inhibitor 100 uM). For the same compound, the “Inhibition level, MAP4K3” value in test [5] was found to be 2. The “Inhibition level, DYRK2” value in test [6] (Ro-31-8220, conc. not given) was determined as 0; in test [6] (inhibitor 100 uM), 2. The “Inhibition level, TOPK” value in test [7] (Ro-31-8220 90 uM) came out at 2; in test [7] (inhibitor 100 uM) it was 0. Besides, the “Inhibition level, IRAK3” value in test [8] was 2.

As for `CC(=O)c1c(O)c(C)c(O)c(Cc2c(O)c3c(c(C(=O)/C=C/c4ccccc4)c2O)OC(C)(C)C=C3)c1O` [Rottlerin (Mallotoxin)], the “Inhibition level, RET” value in test [1] (inhibitor 100 uM) is on record as 0. In addition, in test [2], the “Inhibition level, FGFR1” value amounted to 1. For the same compound, in test [3] (inhibitor 100 uM), the “Inhibition level, PTK2B” value was 2. Also, the “Inhibition level, TLK2” value in test [4] (inhibitor 100 uM) stood at 2. Also, the “Inhibition level, MAP4K3” value in test [5] came out at 1. For the same compound, the “Inhibition level, DYRK2” value in test [6] (inhibitor 100 uM) amounted to 2. The “Inhibition level, TOPK” value in test [7] (inhibitor 100 uM) is recorded as 2. For the same compound, the “Inhibition level, IRAK3” value in test [8] amounted to 2.

For `CC(C)(C)n1nc(-c2ccc(Cl)cc2)c2c(N)ncnc21` [PP2], the “Inhibition level, RET” value in test [1] (inhibitor 100 uM) amounted to 2. For the same compound, the “Inhibition level, FGFR1” value in test [2] worked out at 2. For the same compound, the “Inhibition level, PTK2B” value in test [3] (inhibitor 100 uM) came out at 2. Also, the “Inhibition level, TLK2” value in test [4] (inhibitor 100 uM) is given as 2. In addition, the “Inhibition level, MAP4K3” value in test [5] came out at 2. For the same compound, the “Inhibition level, DYRK2” value in test [6] (inhibitor 100 uM) is reported as 2. Further, the “Inhibition level, TOPK” value in test [7] (inhibitor 100 uM) was 2. The “Inhibition level, IRAK3” value in test [8] stood at 2.
